Where a name gives a salt, the structure may show the parent alone.
Tests used:
[1] = Particle size distribution by laser diffraction (Sympatec Helos); assay type: physicochemical; details: crystalline particles
Source text: As used herein “Particle Size Distribution (P.S.D.)” means the cumulative volume size distribution of equivalent spherical diameters as determined by laser diffraction at 1 bar dispersive pressure in a Sympatec Helos equipment. “Mean particle size distribution, i.e., d(0.5)” correspondingly, means the median of said particle size distribution.

[2] = Specific surface area by Brunauer-Emmett-Teller (B.E.T.) nitrogen absorption; assay type: physicochemical; details: B.E.T. method, crystalline particles
Source text: Specific surface area is defined in units of square meters per gram (m^2/g). It is usually measured by nitrogen absorption analysis. In this analysis, nitrogen is absorbed on the surface of the substance. The amount of the absorbed nitrogen (as measured during the absorption or the subsequent desorption process) is related to the surface area via a formula known as the B.E.T. formula.

[3] = cited from earlier work
[4] = crystalline particles disclosed in WO 00/53282; cited from earlier work

Row | 90 volume-% of the particles (D90) [1] | Mean particle size (D50) [1] | Specific Surface Area [2] | SMILES | solubility in methanol ([3]; methanol) | solubility in water ([3]; water) | d90 value [4]
1 | 33.48 μm | 12.13 μm | 1.09 m^2/g | CCCCc1ncc(/C=C(\Cc2cccs2)C(=O)O)n1Cc1ccc(C(=O)O)cc1 [Example 2, eprosartan mesylate] |  |  | 
2 | 30.42 μm | 11.23 μm | 1.11 m^2/g | CCCCc1ncc(/C=C(\Cc2cccs2)C(=O)O)n1Cc1ccc(C(=O)O)cc1 [Example 4, eprosartan mesylate] |  |  | 
3 | 213.72 μm | 70.56 μm | 0.53 m^2/g | CCCCc1ncc(/C=C(\Cc2cccs2)C(=O)O)n1Cc1ccc(C(=O)O)cc1 [Reference Example 3, eprosartan mesylate] |  |  | 
4 |  |  | below 0.6 m^2/g | CCCCc1ncc(/C=C(\Cc2cccs2)C(=O)O)n1Cc1ccc(C(=O)O)cc1 [eprosartan mesylate, (αE)-α-[[2-n-Butyl-1-[(4-carboxyphenyl)methyl]-1H-imidazol-5-yl]methylene-2-thiophenepropanoic acid monomethanesulfonate] | soluble | practically insoluble | less than 10 micron

Reference: patent US8361507B2, “Eprosartan mesylate crystalline particles and a process for preparing pure eprosartan” (Hetero Drugs Limited, priority 2007, dated 2013)
